One block for each molecule: values may come before it.
Key:
THP-1 cells [1] = assay: Differentiation marker expression (CD14, CD54, CD36) in THP-1 cells, flow cytometry; type: cell-based; conditions: for Leukemia cell differentiating activity, comparison of 5 mer, 20 mer and angiocidin / Upregulation of CD54 in THP-1 leukemia cells: FIGS. 8-11; for Upregulation of CD54 in THP-1 cells: after 24 hours incubation, FIG. 8
Description: FIG. 10 is an image showing the comparison between angiocidin, the 5 mer, and a 20 mer (F86-H105) […]; SEQ ID NO: 2 on the expression of CD14 and CD54. Briefly, THP-1 cells were grown in the presence of various concentrations of peptide overnight and then the cells were assayed by flow cytometry for expression of CD14 and CD54.
FIG. 11 is an image showing the comparison between the 20 mer, 5 mer and angiocidin on the expression of CD14 and CD54 up-regulation in THP-1 cells and two primary leukemia cells. Cells were treated with peptide at 10 ug/ml for 12 hours and CD14 and CD54 were measured by flow cytometry.
THP-1 cells were cultured in RPMI media for 24 hours containing no peptides or angiocidin or 2, 10 μg/ml of either angiocidin, 5 mer, peptide or a control peptide, r5 mer having the reverse sequence of the 5 mer. Marker expression was measured by flow cytometry.

[2] = test system: three different leukemia cell lines; assay: Cytokine upregulation in three leukemia cell lines; type: cell-based
Description: Experiments were also performed comparing the leukemia cell differentiating activity of the 5 mer, the 20 mer and angiocidin.

[3] = target: T1, DR6 extracellular domain-FC chimera (Homo sapiens, UniProt O75509); assay: ELISA binding of biotinylated angiocidin to plate-coated DR6 extracellular-Fc chimeric recombinant protein; conditions: for Blocking of binding of biotinylated angiocidin to DR6: 1 μg/ml biotinylated angiocidin, 50 μg/ml 5 mer, 10 μg/ml anti-DR6 IgG or 50 μg/ml unlabeled angiocidin
T1 construct: wells of a microtiter plate were coated with 100 ng of a DR6 extracellular-Fc chimeric recombinant protein overnight
T1 sequence (O75509 42-349 limits assumed): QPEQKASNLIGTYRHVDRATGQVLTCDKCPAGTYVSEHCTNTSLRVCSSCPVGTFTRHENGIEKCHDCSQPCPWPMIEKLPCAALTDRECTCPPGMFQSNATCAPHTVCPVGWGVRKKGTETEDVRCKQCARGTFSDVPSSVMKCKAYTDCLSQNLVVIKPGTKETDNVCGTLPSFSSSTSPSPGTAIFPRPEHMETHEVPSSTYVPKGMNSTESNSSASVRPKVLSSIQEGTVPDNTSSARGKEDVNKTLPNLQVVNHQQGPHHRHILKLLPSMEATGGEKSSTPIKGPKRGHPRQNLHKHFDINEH
Description: (§1) The next experiment was performed to characterize the binding of DR6 with angiocidin. Briefly, wells of a microtiter plate were coated with 100 ng of a DR6 extracellular-Fc chimeric recombinant protein overnight. Wells were then washed in PBS and blocked with 1% BSA. Blocked wells were incubated with shaking with 200 μl of PBS containing various concentrations of biotinylated angiocidin for one hour. Wells were than washed and incubated with shaking with a 1:10,000 dilution of a 1 mg/ml solution of streptavidin-HRP in PBS. Wells were washed 3 times in PBS and bound streptavidin HRP was detected by incubation of the wells with 100 μl of 3,3′,5,5′-tetramethylbenzidine (TMB) with shaking for 5 min. Reactions were stopped by the addition of 50 μl of 1 M HCl and the color read in an ELISA reader at 450 nm.
(§2) The next experiment was performed to further characterize the binding between DR6 and angiocidin. It was observed that the binding of angiocidin to DR6 was blocked with anti-DR6 IgG, 5 mer peptide, and unlabeled angiocidin. Wells contained either 1 μg/ml of biotinylated angiocidin alone or 50 μg/ml 5 mer, 10 μg/ml of anti-DR6 IgG or 50 μg/ml unlabeled angiocidin.

THP-1 cells [4] = assay: Binding of Alexa Fluor 488 labeled angiocidin to THP-1 cells, flow cytometry
Description: Experiments were performed to evaluate the interaction between DR-6 and angiocidin. […] Briefly, THP-1 cells were plated in 6 well dishes in serum-free media. Cells were untreated or treated for 30 min at 37° with either 2.5 μg/ml of Angiocidin labeled with Alexa Fluor 488 (Angio-488), Angio-448+10 μg/ml control rabbit IgG, Angio-488+10 μg/ml rabbit Anti-DR6 IgG, Angio-488+10 μg/ml unlabeled Angiocidin. Cells were washed twice in PBS and the percent positive Angio-488 measured by flow cytometry.

THP-I leukemia cells = assay: Blocking DR6 on THP-I leukemia cells: effect on the differentiating activity of angiocidin; type: cell-based; conditions: mediated by DR6
From the text: Additionally, the DR6 binding domain of angiocidin is located in a 5 amino acid sequence (ALKHR; SEQ ID NO: 1) present near the N-terminal domain of angiocidin. Accordingly, the 5 mer (ALKHR; SEQ ID NO: 1) is a potentially non-toxic alternative treatment of AML

[5] = target: T2, DR6 in whole extracts of THP-1 cells (Homo sapiens, UniProt O75509); assay: Blot overlay of biotinylated angiocidin on SDS extracts of THP-1 cells; type: binding; conditions: 0.1 mg/ml biotinylated angiocidin, one hour
T2 construct: SDS detergent extracts of THP-1 cells were separated on SDS-PAGE and blotted onto PVD membranes; endogenous in cells; host or cells: THP-1 cells
T2 sequence (O75509 42-655): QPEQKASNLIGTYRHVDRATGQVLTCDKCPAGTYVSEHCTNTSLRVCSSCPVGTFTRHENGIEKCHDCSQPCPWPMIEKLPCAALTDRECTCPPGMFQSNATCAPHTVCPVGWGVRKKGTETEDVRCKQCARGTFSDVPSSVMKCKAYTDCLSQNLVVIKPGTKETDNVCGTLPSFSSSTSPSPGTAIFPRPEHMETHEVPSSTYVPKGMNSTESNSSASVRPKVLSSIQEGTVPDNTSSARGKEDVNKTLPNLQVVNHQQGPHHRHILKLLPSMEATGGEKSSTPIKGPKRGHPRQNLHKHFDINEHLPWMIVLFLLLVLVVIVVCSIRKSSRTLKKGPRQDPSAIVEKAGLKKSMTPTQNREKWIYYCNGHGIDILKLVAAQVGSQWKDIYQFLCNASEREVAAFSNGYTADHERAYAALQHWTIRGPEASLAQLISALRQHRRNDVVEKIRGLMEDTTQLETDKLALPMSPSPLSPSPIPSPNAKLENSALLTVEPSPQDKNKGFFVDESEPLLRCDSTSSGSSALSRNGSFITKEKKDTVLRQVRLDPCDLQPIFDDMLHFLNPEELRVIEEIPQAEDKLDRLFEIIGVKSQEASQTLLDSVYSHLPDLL
Description: Briefly, SDS detergent extracts of THP-1 cells were separated on SDS-PAGE and blotted onto PVD membranes. Membranes were washed in tris-buffered saline containing 0.1% Tween 20 detergent (TBS-T) and 1% BSA and incubated with 0.1 mg/ml of biotinylated angiocidin in the presence or absence of 10 μg/ml rabbit Anti-DR6 antibody. After incubation for one hour membranes were washed in TBS-T and incubated with 1:10,000 dilution of a 1 mg/ml solution of streptavidin HRP in PBS for 30 min. Membranes were then washed, treated with a chemiluminescent substrate for HRP and developed for chemiluminescence using X-ray film. In the panel on the right, recombinant DR6-Fc was used as the positive control.

death receptor-6 (DR6) = target: T3, death receptor-6 (DR6) (Homo sapiens, UniProt O75509); assay: Binding strength of DR6 for angiocidin compared with previously reported binding proteins
T3 sequence (O75509 42-655): T2 sequence (O75509 42-655)

[6] = target: T4, DR6 extracellular-Fc chimeric recombinant protein (UniProt O75509 42-349, limits assumed); assay: competition ELISA on coated DR6 extracellular domain-Fc, 50 ug/ml 5 mer against 1 ug/ml biotinylated angiocidin
T4 construct: extracellular domain; also called DR6 extracellular domain-FC chimera; DR6-Fc; not shown: Fc part
T4 sequence (looked up): T1 sequence (O75509 42-349 limits assumed)
Description: as §1, with “nm. It was observed that angiocidin binds the extracellular domain of DR6 (DR6 extracellular domain-FC chimera) in vitro (FIG. 2).” for “nm.”
as §2

[7] = target: T4, DR6 extracellular-Fc chimeric …; assay: not stated (opening statement of Example 1)
THP-1 cells [8] = assay: Angiocidin-mediated up-regulation of CD14 in THP-1 cells, flow cytometry; type: cell-based; conditions: 2.5 μg/ml Angiocidin plus 10 μg/ml rabbit anti-DR6 IgG or 0.10 μg/ml DR6-Fc, 24 hours, 1% fetal calf serum
Description: THP-1 cells were grown for 24 hours in RPMI containing 1% fetal calf serum (NT) or containing the following: 2.5 μg/ml Angiocidin, 0.10 μg/ml DR6-Fc, 2.5 μg/ml Angiocidin plus 0.10 μg/ml, DR6-Fc, 10 μg/ml rabbit IgG, 2.5 μg/ml Angiocidin plus 10 μg/ml rabbit IgG, 10 μg/ml rabbit anti-DR6 IgG, 2.5 μg/ml Angiocidin plus 10 μg/ml rabbit anti-DR6 IgG. Percent CD14 positive cells were measured by flow cytometry.

Molecule: FCTGIRVAHLALKHRQGKNH [20 mer, 20 mer peptide of the anti-tumor domain of angiocidin]
- Leukemia cell differentiating activity, comparison of 5 mer, 20 mer and angiocidin (THP-1 cells [1]): nearly identical leukemia cell differentiating activities
- Upregulation of CD54 in THP-1 leukemia cells (THP-1 cells [1]): upregulate CD54
- Upregulation of cytokine panel [2]: upregulate a similar panel of cytokines

Molecule: ALKHR [5 mer]
- Blocking of binding of biotinylated angiocidin to DR6 [3]: blocked
- Leukemia cell differentiating activity, comparison of 5 mer, 20 mer and angiocidin (THP-1 cells [1]): nearly identical leukemia cell differentiating activities
- Upregulation of CD54 in THP-1 leukemia cells (THP-1 cells [1]): upregulate CD54
- Differentiation activity measured by upregulation of CD14, CD54, CD36 (THP-1 cells [1]; THP-1 cells, RPMI, 24 hours, 2, 10 μg/ml): mimics the differentiation activity of angiocidin
- Upregulation of CD54 in THP-1 cells (THP-1 cells [1]): upregulate CD54
- Upregulation of cytokine panel [2]: upregulate a similar panel of cytokines

Molecule: Angio-488: Angiocidin labeled with Alexa Fluor 488 [reference compound]
- Affinity for cell bound DR6 after labeling with Alexa Fluor 488 (THP-1 cells [4]; inferred from competition by unlabeled angiocidin): did not alter its affinity for cell bound DR6

B2: Angiocidin (ligand, UniProt P55036 1-377, looked up)
chain: MVLESTMVCVDNSEYMRNGDFLPTRLQAQQDAVNIVCHSKTRSNPENNVGLITLANDCEVLTTLTPDTGRILSKLHTVQPKGKITFCTGIRVAHLALKHRQGKNHKMRIIAFVGSPVEDNEKDLVKLAKRLKKEKVNVDIINFGEEEVNTEKLTAFVNTLNGKDGTGSHLVTVPPGPSLADALISSPILAGEGGAMLGLGASDFEFGVDPSADPELALALRVSMEEQRQRQEEEARRAAAASAAEAGIATTGTEDSDDALLKMTISQQEFGRTGLPDLSSMTEEEQIAYAMQMSLQGAEFGQAESADIDASSAMDTSEPAKEEDDYDVMQDPEFLQSVLENLPGVDPNNEAIRNAMGSLASQATKDGKKDKKEEDKK
modifications: Alexa Fluor 488 label (flow cytometry) or biotin label (ELISA, blot); sites not stated; also used unlabeled as competitor
notes: Labelled and unlabelled preparations are kept as one molecule
- fold stronger binding than the other binding proteins and peptides previously reported for angiocidin [7]: > 100 times

B3: DR6-Fc: DR6 extracellular-Fc chimeric recombinant protein (protein)
chain: T1 sequence (O75509 42-349 limits assumed)
modifications: left off: a dimerising Fc or GST
notes: DR6 extracellular-Fc chimeric recombinant protein
- Inhibition of angiocidin-mediated upregulation of CD14 (percent CD14 positive cells) (THP-1 cells [8]): inhibit the angiocidin-mediated upregulation of CD14

Further lines, with some results ahead:

- Binding of biotinylated angiocidin to the extracellular domain of DR6 ([3]; 100 ng DR6-Fc coated, various concentrations, one hour, read at 450 nm): binds the extracellular domain of DR6
- Blocking of binding of biotinylated angiocidin to DR6 [3]: blocked
Molecule: angiocidin: protein originally isolated from lung carcinoma, receptor for thrombospondin-1, inhibitor of angiogenesis and tumor cell proliferation
- Differentiating activity on THP-I leukemia cells (THP-I leukemia cells): transforms THP-I leukemia cells into normal macrophage-like cells
- Binding of angiocidin to DR6 in whole extracts of THP-1 cells [5]: binds to DR6 in whole extracts of THP-1 cells
- Binding strength of DR6 for angiocidin relative to other reported binding proteins and peptides (death receptor-6 (DR6)): more than 100 times
- Leukemia cell differentiating activity, comparison of 5 mer, 20 mer and angiocidin (THP-1 cells [1]): nearly identical leukemia cell differentiating activities
- Upregulation of CD54 in THP-1 leukemia cells (THP-1 cells [1]): upregulate CD54
- Upregulation of CD54 in THP-1 cells (THP-1 cells [1]): upregulate CD54
- Inhibition of binding of Angio-488 to THP-1 cells (percent positive Angio-488) (THP-1 cells [4]; 2.5 μg/ml Angio-488 plus 10 μg/ml competitor, 30 min at 37°, serum-free media): competed with the binding of Angio-488
- Upregulation of cytokine panel [2]: upregulate a similar panel of cytokines

- binding result [6]: binds
B1: 5 mer (ALKHR peptide) (peptide)
peptide: ALKHR
notes: Five-residue peptide from angiocidin; also called Angio-pep; 5 mer peptide

Source: patent US20170174734A1, “DR6 Receptor Mediates the Leukemia Differentiation Activity of Angiocidin: A Potent Anti-Tumor Peptide” (Temple University-Of The Commonwealth System of Higher …, priority 2014, published 2017)
